Test results reported in patent publication US20180228818A1, “PHARMACEUTICAL COMPOSITION COMPRISING ASPRIN, METFORMIN, AND SEROTONIN WITH NON-IONIC SURFACTANT” (ALS MOUNTAIN LLC, priority 2014, published 2018).

Assay: Solubilization test of Poloxamer 188/407 to Aspirin in ethanol
Type: physicochemical
Conditions: for Amount Dissolved: 10 ml, room temperature (30° C.)
Description: (1) 0%,10%, 20%, 30%, 40% (m/v) of Poloxamer 188/407 anhydrous ethanol solution were prepared respectively,10 ml of each solution was added into five sealed centrifuge tubes respectively (each centrifuge tube was numbered accordingly).
(2) Each centrifuge tube was added with adequate amount of Aspirin based on the pre-test data (please refer to Table 1: 0 h data), and shaken to dissolution at room temperature (30° C.).
0.1 g of Aspirin would be added into the tube when complete dissolution was observed, then sealed and continued shaking. In cases which the drug was not dissolved, the previous amount of drug dissolved would be recorded as the maximum amount needed for dissolution.
(4) Dissolution observation was continued until some amount of drug compound could not be dissolved.
(5) The observation of each tube was recorded in Table 1

For `CC(=O)Oc1ccccc1C(=O)O` [Aspirin, acetylsalicylic acid], the “Solubilization Rate” value (Poloxamer 188 0%) was 0%, the “Amount Dissolved” value (Poloxamer 188 0% (m/v) in anhydrous ethanol) was 2.50 g and the “Solubilization Rate” value (Poloxamer 188 10%) was 12%. For the same compound, the “Amount Dissolved” value (Poloxamer 188 10% (m/v) in anhydrous ethanol) was 2.80 g, the “Solubilization Rate” value (Poloxamer 188 20%) was 20% and the “Amount Dissolved” value (Poloxamer 188 20% (m/v) in anhydrous ethanol) was 3.00 g. The “Solubilization Rate” value (Poloxamer 188 30%) was 24%, the “Amount Dissolved” value (Poloxamer 188 30% (m/v) in anhydrous ethanol) was 3.10 g and the “Solubilization Rate” value (Poloxamer 188 40%) was 28%. The “Amount Dissolved” value (Poloxamer 188 40% (m/v) in anhydrous ethanol) was 3.20 g, the “solubility of Aspirin” value (Poloxamer 188 and 407 anhydrous ethanol) was “increases with Poloxamer concentration” and the “Solubilization Rate” value (Poloxamer 407 0%) was 0%. The “Amount Dissolved” value (Poloxamer 407 0% (m/v) in anhydrous ethanol) was 2.50 g, the “Solubilization Rate” value (Poloxamer 407 10%) was 12% and the “Amount Dissolved” value (Poloxamer 407 10% (m/v) in anhydrous ethanol) was 2.80 g. The “Solubilization Rate” value (Poloxamer 407 20%) was 20%, the “Amount Dissolved” value (Poloxamer 407 20% (m/v) in anhydrous ethanol) was 3.00 g and the “Solubilization Rate” value (Poloxamer 407 30%) was 24%. For the same compound, the “Amount Dissolved” value (Poloxamer 407 30% (m/v) in anhydrous ethanol) was 3.10 g, the “Solubilization Rate” value (Poloxamer 407 40%) was 28% and the “Amount Dissolved” value (Poloxamer 407 40% (m/v) in anhydrous ethanol) was 3.20 g.
